Laboratory results: US9108936B2, “Substituted 4-aminobenzamides as KCNQ2/3 modulators” (GRUENENTHAL GMBH, priority 2012, dated 2015)

Molecular target: T1, KCNQ2/3 channels (Homo sapiens, UniProt O43525+O43526)
T1 construct: expressed in transfected cells; host or cells: CHO-K1
Assay: Fluorescence assay using a voltage sensitive dye (fluorimetry)
Type: cell-based
Details: CHO-K1 cells expressing KCNQ2/3; for Emax: plateau effect relative to saturated Retigabine (50 μM), read-out: Fluorimetry % efficacy (retigabine = 100%); for EC50: voltage-sensitive dye, KCl depolarization, read-out: Fluorimetry EC50/IC50
Text: Method I. Fluorescence Assay Using a Voltage Sensitive Dye (Fluorimetry)
The modulation of the KCNQ opening state (and consequently the voltage potential of a cell) by test compounds such as compounds according to the present invention results in an increased or reduced amount of a voltage-sensitive dye in the cytoplasm of the cells tested. These voltage-sensitive dyes are fluorescent dyes and, therefore, are forming the link between cell potential influenced by KCNQ modulation and fluorescence intensity. A KCNQ agonist leads to an opening of the channel, potassium and dye efflux, a following hyperpolarization and a reduction of the inner fluorescence intensity in a kinetic protocol. If applying an ion jump by KCl depolarization, KCNQ agonists increase the ΔF/F value. An antagonist performs vice versa, respectively.
The ‘fluorimetry EC50’ is the half maximum effective concentration (EC50), where the concentration of a drug/compound induces a response halfway between the baseline and maximum plateau effect. In other words, said value represents the concentration of a compound, where 50% of its maximal effect in the fluorimetric assay is observed if the substance concentration is graphed against the corresponding ΔF/F values (for which the calculation method is described below). Therefore, ‘fluorimetry EC50’ is a measure for the compound potency. The compound efficacy is mirrored by ‘fluorimetry % efficacy’ (‘% Efficacy’) and refers to the maximum response achievable by the test compound, i.e. the plateau effect. This drug's plateau effect is related to the plateau effect, which can be achieved by applying a saturated concentration of a reference compound, e.g. Retigabine (50 μM), in independent wells of the same experimental plate or series. A compound showing 100% efficacy is as efficacious as the reference compound (Retigabine) with a saturated concentration.
[…] CHO-K1 cells expressing KCNQ2/3 channels are cultivated adherently at 37° C., 5% CO2 and 95% humidity in cell culture bottles (e.g. 80 cm^2 TC flasks, Nunc) with DMEM-high glucose (Sigma Aldrich, D7777) including 10% FCS (PAN Biotech, e.g. 3302-P270521) or alternatively MEM Alpha Medium (1×, liquid, Invitrogen, #22571), 10% fetal calf serum (FCS) (Invitrogen, #10270-106, heat-inactivated) and the necessary selection antibiotics.
Before being sown out for the measurements, the cells are washed with 1× DPBS buffer Ca^2+/Mg^2+-free (e.g. Invitrogen, #14190-094) and detached from the bottom of the culture vessel by using Accutase (PAA Laboratories, #L11-007) (incubation with Accutase for 15 min at 37° C.). The cell number is determined using a CASY™ cell counter (TCC, Schärfe System). Depending on the optimal density for each individual cell line, 20,000-30,000 cells/well/100 μl are seeded onto 96-well Corning™ CellBIND™ assay plates (Flat Clear Bottom Black Polystyrene Microplates, #3340). Freshly seeded cells are then left to settle for one hour at room temperature, followed by incubation for 24 hours at 37° C., 5% CO2 and 95% humidity.
The voltage-sensitive fluorescent dye from the Membrane Potential Assay Kit (Red™ Bulk format part R8123 for FLIPR, MDS Analytical Technologies™) is prepared by dissolving the contents of one vessel Membrane Potential Assay Kit Red Component A in 200 ml of extracellular buffer (ES buffer, 120 mM NaCl, 1 mM KCl, 10 mM HEPES, 2 mM CaCl2, 2 mM MgCl2, 10 mM glucose; pH 7.4). After removal of the nutrient medium, the cells are washed once with 200 μl of ES buffer, then loaded for 45 min at room temperature in 100 μl of dye solution in the dark.
Fluorescence measurements are carried out in a BMG Labtech FLUOstar™, BMG Labtech NOVOstar™ or BMG Labtech POLARstar™ instrument (525 nm excitation, 560 nm emission, Bottom Read mode). […]

Row | Emax [%] | EC50 [µM] | Compound
1 | 181 | 0.506 | CCc1cc(N2CCOCC2)cc(CC)c1C(=O)NCc1ccc(Cl)cc1 [Example 41, N-[(4-Chlorophenyl)-methyl]-2,6-diethyl-4-morpholin-4-yl-benzamide]
2 | 155 | 4.66 | Cc1cc(N2CCOCC2)cc(C2CC2)c1C(=O)NCC[C@@H](O)C(C)(C)C [Example 28, 2-Cyclopropyl-N-[(3R)-3-hydroxy-4,4-dimethyl-pentyl]-6-methyl-4-morpholin-4-yl-benzamide]
3 | 147 | 1.64 | COc1cc(N2CCOCC2)cc(C)c1C(=O)NCc1ccc(Cl)cc1 [Example 10, N-[(4-Chlorophenyl)-methyl]-2-methoxy-6-methyl-4-morpholin-4-yl-benzamide]
4 | 246 | 0.108 | CCSc1cc(N2CCOC[C@H]2C)cc(C)c1C(=O)NCCCC(C)(C)C [Example 5, N-(4,4-Dimethyl-pentyl)-2-ethylsulfanyl-6-methyl-4-[(3R)-3-methyl-morpholin-4-yl]-benzamide]
5 | 216 | 1.37 | Cc1cc(N2CCOCC2)cc(C(C)C)c1C(=O)NCC(O)CC(C)(C)C (centres unmarked) [Example 33, N-(2-Hydroxy-4,4-dimethyl-pentyl)-2-isopropyl-6-methyl-4-morpholin-4-yl-benzamide]
6 | 170 | 0.552 | Cc1cc(N2CCOCC2)cc(C2CC2)c1C(=O)NCc1ccc(Cl)cc1 [Example 15, N-[(4-Chlorophenyl)-methyl]-2-cyclopropyl-6-methyl-4-morpholin-4-yl-benzamide]
7 | 196 | 0.165 | COc1cc(N2CCOCC2)cc(C(C)C)c1C(=O)NCc1ccc(Cl)cc1 [Example 40, N-[(4-Chlorophenyl)-methyl]-2-isopropyl-6-methoxy-4-morpholin-4-yl-benzamide]
8 | 167 | 0.748 | Cc1cc(N2CCOCC2)cc(N2CC[C@@H](F)C2)c1C(=O)NCc1ccc(Cl)cc1 [Example 38, N-[(4-Chlorophenyl)-methyl]-2-[(3R)-3-fluoro-pyrrolidin-1-yl]-6-methyl-4-morpholin-4-yl-benzamide]
9 | 197 | 0.673 | Cc1cc(N2CCCCC2)cc(C(F)(F)F)c1C(=O)NCc1cccc(F)c1 [Example 27, N-[(3-Fluorophenyl)-methyl]-2-methyl-4-piperidin-1-yl-6-(trifluoromethyl)-benzamide]
10 | 200 | 0.26 | CCSc1cc(N2CCOC[C@H]2C)cc(C)c1C(=O)NCc1ccc(Cl)cc1 [Example 4, N-[(4-Chlorophenyl)-methyl]-2-ethylsulfanyl-6-methyl-4-[(3R)-3-methyl-morpholin-4-yl]-benzamide]
11 | 196 | 0.217 | CC(C)c1cc(N2CCOCC2)cc(F)c1C(=O)NCc1ccc(Cl)cc1 [Example 39, N-[(4-Chlorophenyl)-methyl]-2-fluoro-6-isopropyl-4-morpholin-4-yl-benzamide]
12 | 166 | 1.69 | Cc1cc(N2CCOCC2)cc(C2CCOC2)c1C(=O)NCc1ccc(Cl)cc1 (centres unmarked) [Example 37, N-[(4-Chlorophenyl)-methyl]-2-methyl-4-morpholin-4-yl-6-tetrahydro-furan-3-yl-benzamide]
13 | 183 | 0.217 | CCCc1cc(N2CCOCC2)cc(C)c1C(=O)NCc1ccc(Cl)cc1 [Example 13, N-[(4-Chlorophenyl)-methyl]-2-methyl-4-morpholin-4-yl-6-propyl-benzamide]
14 | 220 | 0.335 | CCSc1cc(N2CCOCC2)cc(C)c1C(=O)NCCCC(C)(C)C [Example 3, N-(4,4-Dimethyl-pentyl)-2-ethylsulfanyl-6-methyl-4-morpholin-4-yl-benzamide]
15 | 161 | 0.139 | Cc1cc(N2CCOCC2)cc(C(C)C)c1C(=O)NCc1ccc(OC(F)(F)F)cc1 [Example 23, 2-Isopropyl-6-methyl-4-morpholin-4-yl-N-[[4-(trifluoromethyloxy)-phenyl]-methyl]-benzamide]
16 | 159 | 3.81 | Cc1cc(N2CCOCC2)cc(C2CC2)c1C(=O)NCC(O)CC(C)(C)C (centres unmarked) [Example 32, 2-Cyclopropyl-N-(2-hydroxy-4,4-dimethyl-pentyl)-6-methyl-4-morpholin-4-yl-benzamide]
17 | 66 | 8.8 | CC[S+]([O-])c1cc(N2CCOCC2)cc(C)c1C(=O)NCCCC(C)(C)C (centres unmarked) [Example 7, N-(4,4-Dimethyl-pentyl)-2-(ethylsulfinyl)-6-methyl-4-morpholin-4-yl-benzamide]
18 | 163 | 1.48 | CCSc1cc(N2CCOCC2)cc(C)c1C(=O)NCc1cccc(F)c1 [Example 1, 2-Ethylsulfanyl-N-[(3-fluorophenyl)-methyl]-6-methyl-4-morpholin-4-yl-benzamide]
19 | 212 | 3.1 | Cc1cc(N2CCOCC2)cc(C(C)C)c1C(=O)NCC[C@@H](O)C(C)(C)C [Example 30, N-[(3R)-3-Hydroxy-4,4-dimethyl-pentyl]-2-isopropyl-6-methyl-4-morpholin-4-yl-benzamide]
20 | 194 | 0.033 | Cc1cc(N2CCOCC2)cc(C2CCCC2)c1C(=O)NCc1ccc(Cl)cc1 [Example 16, N-[(4-Chlorophenyl)-methyl]-2-cyclopentyl-6-methyl-4-morpholin-4-yl-benzamide]
21 | 144 | 0.708 | Cc1cc(N2CCOCC2)cc(C(F)F)c1C(=O)NCc1ccc(Cl)cc1 [Example 20, N-[(4-Chlorophenyl)-methyl]-2-(difluoro-methyl)-6-methyl-4-morpholin-4-yl-benzamide]
22 | 195 | 1.81 | Cc1cc(N2CCOCC2)cc(C2CC2)c1C(=O)NCC[C@H](O)C(C)(C)C [Example 29, 2-Cyclopropyl-N-[(3S)-3-hydroxy-4,4-dimethyl-pentyl]-6-methyl-4-morpholin-4-yl-benzamide]
23 | 89 | 5.26 | Cc1cc(N2CCOCC2)cc(C2CC2)c1C(=O)NCc1ccc(C(F)(F)F)cn1 [Example 36, 2-Cyclopropyl-6-methyl-4-morpholin-4-yl-N-[[5-(trifluoromethyl)-pyridin-2-yl]-methyl]-benzamide]
24 | 134 | 3.07 | Cc1cc(N2CCOCC2)cc(C(C)C)c1C(=O)NCc1ccc(C(F)(F)F)cn1 [Example 35, 2-Isopropyl-6-methyl-4-morpholin-4-yl-N-[[5-(trifluoromethyl)-pyridin-2-yl]-methyl]-benzamide]
25 | 118 | 0.626 | C=C(C)c1cc(N2CCOCC2)cc(C)c1C(=O)NCc1ccc(C(F)(F)F)cc1 [Example 21, 2-Isopropenyl-6-methyl-4-morpholin-4-yl-N-[[4-(trifluoromethyl)-phenyl]-methyl]-benzamide]
26 | 169 | 0.369 | CCc1cc(N2CCOCC2)cc(C)c1C(=O)NCc1ccc(Cl)cc1 [Example 12, N-[(4-Chlorophenyl)-methyl]-2-ethyl-6-methyl-4-morpholin-4-yl-benzamide]
27 | 144 | 0.355 | Cc1cc(N2CCOCC2)cc(C2CC2)c1C(=O)NCc1ccc(OC(F)(F)F)cc1 [Example 25, 2-Cyclopropyl-6-methyl-4-morpholin-4-yl-N-[[4-(trifluoromethyloxy)-phenyl]-methyl]-benzamide]
28 | 88 | 5.56 | CCS(=O)(=O)c1cc(N2CCOCC2)cc(C)c1C(=O)NCc1ccc(Cl)cc1 [Example 8, N-[(4-Chlorophenyl)-methyl]-2-(ethylsulfonyl)-6-methyl-4-morpholin-4-yl-benzamide]
